In patent US11938129B2, “Methods and compositions for the treatment of vascular disease” (THE GENERAL HOSPITAL CORPORATION, priority 2018, dated 2024):
{FAM} = FAM fluorophore (/36-FAM/)

Columns and labels:
a-SMA and SM22a = test: immunofluorescence of contractile proteins in ligated carotids; type: in vivo, mouse; settings: ligated carotid, in contrast to carotid VSMCs in wild type animals
Procedure: All mice used in this study were cared for under strict compliance with the Partners Institutional Animal Care and Use Committee (IACUC), regulated by the United States Public Health Service (USPHS). Carotid ligations were performed in 10 week old mice. Briefly, animals were anesthetized using intraperitoneal ketamine/xylazine (80 and 12 mg/kg, respectively) followed by a small incision in the neck to expose the carotid artery. Then the left carotid was ligated at the carotid bifurcation level using a 8-0 silk suture. At 21 days mice were sacrificed and carotids were collected for histological analysis. Approximately 98% of wild type mice developed stenotic lesions. Mice that developed thrombosis of the ligated carotid were excluded from the study (−1¬2%). Malatl knockout mice were kindly provided by Dr. David Spector (Cold Spring Harbor, N.Y.). Hdac9 flox/flox/Talgn-cre mice were generated as previously reported (10). Ezh2 fl/fl/ (STOCK Ezh2tm2Sho/J) and Myh11-cre-GFP (B6.Cg-Tg(Myh11-cre,-EGFP)2Mik/J) were crossed to generate smooth muscle cell-Ezh2 deficient mice. All above mice and wild-type mice (C57BL/6J) were purchased from Jackson laboratory. For tissue analysis, animals were euthanized through inhalational isoflurane (Sigma, St, Louis, Mo.) prior to tissue collection. All carotid ligation (left carotid) procedures were performed at 10 weeks of age. All experiments were performed on male and female animals at a 1:1 ratio.
Left and right carotids were cryosectioned using OCT standard protocol and sectioning. The right carotid artery was unligated and served as an internal control. Neoinitima analysis was performed from hematoxylin and eosin (H & E) stained horizontal cross-sections embedded in Optimal Cutting Temperature compound (OCT). Briefly, the distal 0.2 mm of carotid from the ligation suture site were discarded followed by generation of 20 slides (10 pM). Slides 1, 5, 10, and 15 were H&E stained for quantification of neointima. For quantification of the neointima, internal and external elastic lamina perimeters and medial thickness from 4 quadrants were measured and averaged using Image J software from the National Institutes of Health (NIH). Slides 2-4, 6-9, and 11-14 were used for immunofluorescence staining.
Cohorts of 10-week-old wild-type mice were treated with oral administration in drinking water of GSK343 24 hrs before left carotid ligation and following treatment for 3 weeks. GSK343 inhibitor (25 mg) was dissolved in 1 mL of DMSO to obtain a stock solution of 46 mM. Then, 250 ml of drinking water was supplemented with 250 pl of GSK343 stock solution. Control group for was given with equal volumes of sterile water. Bottles containing GSK343 were replaced with fresh water supplied with drug every 3 days. […]

[1] = delivery of fluorescently labeled GapmeR to the vasculature; type: in vivo, mouse; settings: ligated carotid of GapmeR treated mice, not in vehicle and GSK343 treated mice

## 3′-FAM-GapmeR-Malatl: fluorescently labeled GapmeR against MALAT1, GTCACAATGCATTCTA/36-FAM/ (SEQ ID NO: 2) (3' {FAM}, sugars by position and backbone not given here; LNA gapmer)
a-SMA and SM22a
  expression of α-SMA in carotid VSMCs: robust expression
[1]
  detection of 3′-FAM labeled GapmeR in ligated carotid: Detection
